# Measurements from the OligoGym collection.
# Values joined by “and” are separate entries in the source; they are usually repeats but may differ in a detail not shown here. Equal entries are not always repeated. After the bases stand the sugars from the 5' end (letter, count) and the backbone: PS all phosphorothioate, else s phosphorothioate and o phosphodiester by linkage. Methylation of C is not given here. e = 2'-O-(2-methoxyethyl) (MOE); k = constrained ethyl (cEt); d = 2'-deoxy (DNA)
# Target: APOL1
# Details: ASO
sequence,measurement,setting,value
"ATCAGATGGGTACTTC (sugars kkkddddkekekdddd, PS)",target mRNA inhibition,"A431, 2 µM",54%
"ATGCTAATTTTCTGAC (sugars kkddddekekeddddd, PS)",target mRNA inhibition,"A431, 2 µM",95%
"ATTCAGAATTTCCACT (sugars kkddddkekekddddd, PS)",target mRNA inhibition,"A431, 2 µM",76%
"ATTCAGAATTTCCACT (sugars kkddddkekekkdddd, PS)",target mRNA inhibition,"A431, 2 µM",57%
"ATTCAGAATTTCCACT (sugars kkkddddkekekdddd, PS)",target mRNA inhibition,"A431, 2 µM",56%
"ATTCCTGGGCAGTTCA (sugars k4 d9 k3, PS)",target mRNA inhibition,"A431, 0.0625 µM",37%
same,target mRNA inhibition,"A431, 0.25 µM",43%
same,target mRNA inhibition,"A431, 1 µM",58%
"ATTCTATTAGAGGGCT (sugars k3 d4 k3 e1 d5, PS)",target mRNA inhibition,"A431, 2 µM",85%
"ATTCTATTAGAGGGCT (sugars k4 d9 k3, PS)",target mRNA inhibition,"A431, 0.0156 µM",31%
same,target mRNA inhibition,"A431, 0.0625 µM",54% and 53% and 55%
same,target mRNA inhibition,"A431, 0.25 µM",82% and 76% and 86%
"ATTCTATTAGAGGGCT (sugars kddddkekekeddddd, PS)",target mRNA inhibition,"A431, 2 µM",34%
"ATTCTATTAGAGGGCT (sugars kkdddddkekeddddd, PS)",target mRNA inhibition,"A431, 2 µM",78%
"ATTCTCATGGTACAGG (sugars kkdddddkekeddddd, PS)",target mRNA inhibition,"A431, 0.0156 µM",18%
same,target mRNA inhibition,"A431, 0.0625 µM",46%
same,target mRNA inhibition,"A431, 0.25 µM",74%
same,target mRNA inhibition,"A431, 1 µM",90%
same,target mRNA inhibition,"A431, 2 µM",95%
"ATTCTCATGGTACAGG (sugars kkddddkekekddddd, PS)",target mRNA inhibition,"A431, 2 µM",76%
"ATTTCTTGATGTGGTG (sugars kddddkekekeddddd, PS)",target mRNA inhibition,"A431, 2 µM",81%
"CAACACATCATTGGGT (sugars k2 d4 e3 k2 d5, PS)",target mRNA inhibition,"A431, 2 µM",80%
"CAACACATCATTGGGT (sugars kkddddkekekddddd, PS)",target mRNA inhibition,"A431, 2 µM",43%
"CAACACATCATTGGGT (sugars kkkddddkekekdddd, PS)",target mRNA inhibition,"A431, 2 µM",30%
"CACAGCATTGAGTACA (sugars k4 d9 k3, PS)",target mRNA inhibition,"A431, 0.0625 µM",44%
same,target mRNA inhibition,"A431, 0.25 µM",66%
same,target mRNA inhibition,"A431, 1 µM",86%
"CACATCATTGGGTTAT (sugars kkddddkekekddddd, PS)",target mRNA inhibition,"A431, 2 µM",74%
"CACTTTACATGCACGA (sugars kkdddddddddkekek, PS)",target mRNA inhibition,"A431, 0.0156 µM",21%
same,target mRNA inhibition,"A431, 0.0625 µM",38%
same,target mRNA inhibition,"A431, 0.25 µM",69%
same,target mRNA inhibition,"A431, 1 µM",89%
"CAGATGGGTACTTCTG (sugars kdddddkekekddddd, PS)",target mRNA inhibition,"A431, 2 µM",44%
"CAGATGGGTACTTCTG (sugars kddddkekekeddddd, PS)",target mRNA inhibition,"A431, 2 µM",23%
"CAGATTCTGTGTGCTC (sugars k4 d9 k3, PS)",target mRNA inhibition,"A431, 0.0625 µM",51%
same,target mRNA inhibition,"A431, 0.25 µM",68%
same,target mRNA inhibition,"A431, 1 µM",75%
"CAGTTTTGTAAGTGCA (sugars k2 d4 e3 k2 d5, PS)",target mRNA inhibition,"A431, 2 µM",92%
"CAGTTTTGTAAGTGCA (sugars k4 d9 k3, PS)",target mRNA inhibition,"A431, 0.0625 µM",96%
same,target mRNA inhibition,"A431, 0.25 µM",98%
same,target mRNA inhibition,"A431, 1 µM",99%
"CAGTTTTGTAAGTGCA (sugars kddddkekekeddddd, PS)",target mRNA inhibition,"A431, 2 µM",48%
"CAGTTTTGTAAGTGCA (sugars kkkddddkdkdkdddd, PS)",target mRNA inhibition,"A431, 0.04 µM",57% and 50%
same,target mRNA inhibition,"A431, 1 µM",92%
same,target mRNA inhibition,"A431, 2 µM",93%
"CAGTTTTGTAAGTGCA (sugars kkkddddkekekdddd, PS)",target mRNA inhibition,"A431, 2 µM",87%
"CATTCAGAATTTCCAC (sugars k4 d9 k3, PS)",target mRNA inhibition,"A431, 0.04 µM",15%
same,target mRNA inhibition,"A431, 0.0625 µM",56%
same,target mRNA inhibition,"A431, 0.25 µM",81%
same,target mRNA inhibition,"A431, 1 µM",90% and 81%
"CATTCAGAATTTCCAC (sugars kkkddddkekeddddd, PS)",target mRNA inhibition,"A431, 2 µM",86%
"CCCTTTTGGCACCTTC (sugars k4 d9 k3, PS)",target mRNA inhibition,"A431, 0.0625 µM",52% and 73%
same,target mRNA inhibition,"A431, 0.25 µM",81% and 88%
same,target mRNA inhibition,"A431, 1 µM",94% and 93%
"CCGTCAATATATTCTT (sugars k3 d4 k3 e1 d5, PS)",target mRNA inhibition,"A431, 0.0156 µM",36%
same,target mRNA inhibition,"A431, 0.0625 µM",70%
same,target mRNA inhibition,"A431, 0.25 µM",92%
same,target mRNA inhibition,"A431, 1 µM",96%
same,target mRNA inhibition,"A431, 2 µM",98%
"CCGTTCCAGGCCTCAT (sugars k4 d9 k3, PS)",target mRNA inhibition,"A431, 0.0625 µM",48%
same,target mRNA inhibition,"A431, 0.25 µM",66%
same,target mRNA inhibition,"A431, 1 µM",65%
"CGCAATGCTGACTTGG (sugars k2 d4 e3 k2 d5, PS)",target mRNA inhibition,"A431, 2 µM",88%
"CGCAATGCTGACTTGG (sugars kkddddkdkdkddddd, PS)",target mRNA inhibition,"A431, 2 µM",94%
"CGTCAATATATTCTTT (sugars kdddddkekekddddd, PS)",target mRNA inhibition,"A431, 2 µM",90%
"CGTCAATATATTCTTT (sugars kkddddkekekddddd, PS)",target mRNA inhibition,"A431, 0.0156 µM",20%
same,target mRNA inhibition,"A431, 0.0625 µM",41%
same,target mRNA inhibition,"A431, 0.25 µM",75%
same,target mRNA inhibition,"A431, 1 µM",90%
same,target mRNA inhibition,"A431, 2 µM",94%
"CGTCAATATATTCTTT (sugars kkkddddkdkdkdddd, PS)",target mRNA inhibition,"A431, 0.0156 µM",23%
same,target mRNA inhibition,"A431, 0.0625 µM",61%
same,target mRNA inhibition,"A431, 0.25 µM",84%
same,target mRNA inhibition,"A431, 1 µM",93%
same,target mRNA inhibition,"A431, 2 µM",95%
"CGTTCCAGGCCTCATT (sugars k4 d9 k3, PS)",target mRNA inhibition,"A431, 0.0625 µM",40%
same,target mRNA inhibition,"A431, 0.25 µM",60%
same,target mRNA inhibition,"A431, 1 µM",82%
"CTAATTTTCTGACTGT (sugars kkddddekekeddddd, PS)",target mRNA inhibition,"A431, 2 µM",90%
"CTAATTTTCTGACTGT (sugars kkkddddkekekdddd, PS)",target mRNA inhibition,"A431, 2 µM",90%
"CTGAAGATTGGCTCTG (sugars kkddddekekeddddd, PS)",target mRNA inhibition,"A431, 2 µM",53%
"CTGTTCTAACTCTTGG (sugars k4 d9 k3, PS)",target mRNA inhibition,"A431, 0.0625 µM",61%
same,target mRNA inhibition,"A431, 0.25 µM",79%
same,target mRNA inhibition,"A431, 1 µM",87%
"CTGTTCTAACTCTTGG (sugars kkddddkekekddddd, PS)",target mRNA inhibition,"A431, 2 µM",88%
"CTTCTGTTAGATACAA (sugars k4 d9 k3, PS)",target mRNA inhibition,"A431, 0.0625 µM",46%
same,target mRNA inhibition,"A431, 0.25 µM",73%
same,target mRNA inhibition,"A431, 1 µM",90%
"CTTCTTATGTTATCCT (sugars k4 d9 k3, PS)",target mRNA inhibition,"A431, 0.0625 µM",35%
same,target mRNA inhibition,"A431, 0.25 µM",72%
same,target mRNA inhibition,"A431, 1 µM",85%
"CTTTAAACTCAGGTGA (sugars kkddddkekekkdddd, PS)",target mRNA inhibition,"A431, 2 µM",70%
"CTTTATACCAGTGTCT (sugars k2 d4 e3 k2 d5, PS)",target mRNA inhibition,"A431, 0.0156 µM",12%
same,target mRNA inhibition,"A431, 0.0625 µM",46%
same,target mRNA inhibition,"A431, 0.25 µM",74%
same,target mRNA inhibition,"A431, 1 µM",92%
same,target mRNA inhibition,"A431, 2 µM",96%
"CTTTATACCAGTGTCT (sugars kekddddeekkddddd, PS)",target mRNA inhibition,"A431, 0.0156 µM",22%
same,target mRNA inhibition,"A431, 0.0625 µM",41%
same,target mRNA inhibition,"A431, 0.25 µM",69%
same,target mRNA inhibition,"A431, 1 µM",89%
same,target mRNA inhibition,"A431, 2 µM",95%
"CTTTATACCAGTGTCT (sugars kkddddkekekddddd, PS)",target mRNA inhibition,"A431, 2 µM",86%
"GAACGCAATGCTGACT (sugars kkkddddkekekdddd, PS)",target mRNA inhibition,"A431, 2 µM",48%
"GAAGATTGGCTCTGGC (sugars k2 d4 e3 k2 d5, PS)",target mRNA inhibition,"A431, 2 µM",81%
"GAAGATTGGCTCTGGC (sugars kkkddddkekeddddd, PS)",target mRNA inhibition,"A431, 2 µM",75%
"GAATTATGGAATTGCA (sugars k2 d4 e4 k2 d4, PS)",target mRNA inhibition,"A431, 2 µM",95%
"GAATTATGGAATTGCA (sugars kkddddekekeddddd, PS)",target mRNA inhibition,"A431, 2 µM",95%
"GAATTATGGAATTGCA (sugars kkddddkekekkdddd, PS)",target mRNA inhibition,"A431, 2 µM",61%
"GAATTATGGAATTGCA (sugars kkkddddkekekdddd, PS)",target mRNA inhibition,"A431, 2 µM",61%
"GAGCGATTGTCTTGTT (sugars k4 d9 k3, PS)",target mRNA inhibition,"A431, 0.0625 µM",62% and 83%
same,target mRNA inhibition,"A431, 0.25 µM",85% and 92%
same,target mRNA inhibition,"A431, 1 µM",92% and 95%
